# Data from patent publication US7981930B2, “Compositions and kits for treating influenza” (Adamas Pharmaceuticals, Inc., priority 2007, dated 2011).
# Where two headings read alike, the source gives them in different places.
# Experiments:
# [1] = system: A/Albany/1/98 (H3N2); assay: microbe, parasite or virus in culture; assay type: cell-based; settings: for EC50: Influenza A virus, H3N2, MDCK; for EC25, Target serum C: molar equivalent of in vitro EC25; for EC75, Target serum C: molar equivalent of in vitro EC75; for EC25, In vitro C / EC75, In vitro C: MDCK cells in flasks, virus reduction at 72 hrs
# [2] = system: A/Victoria/3/75 (H3N2) virus; assay: Mouse model of influenza infection, treatment started before infection (Example 3A); assay type: in vivo, mice
# [3] = system: wild type A/Albany (H3N2) strain; assay: Hollow fiber system, MDCK cells, continuous infusion 168 hours, viral titer and sequencing; assay type: cell-based, Influenza A virus (H3N2); settings: for effect on viral titer: drug alone at low dose (amantadine 0.1 μg/mL; ribavirin 0.5 μg/mL); for concentrations at which the triple combination demonstrated synergism: hollow fiber, steady-state infusion
# [4] = system: A/Sydney/05/97 H3N2 virus; assay type: cell-based; settings: for increase in sensitivity of the virus to the drug in triple combination compared to monotherapy: drug used with the two other drugs vs. monotherapy; for concentration range at which synergy was seen: drugs in combination, MDCK 96-well
# [5] = system: A/Victoria/3/75 (H3N2) virus; assay: Mouse model of influenza infection, treatment initiated 24 or 48 hours after infection (Example 3B); assay type: in vivo, mice; settings: for weight loss: day 9
# [6] = system: Influenza A/Victoria/3/75 (H3N2) virus; assay: In vitro kinetic assay of mono and combination therapy in MDCK and SIAT-1 cells (viral load by CCID50, CPE scoring); assay type: cell-based
# [7] = molar equivalent of in vitro EC50, read-out: EC50, Target serum C
# [8] = monotherapy, concentration of drug that reduces 50% of the virus at 72 hrs, read-out: EC50, In vitro C
# [9] = amantadine 3 mg/ml, oseltamivir 10 or 30 mg/kg/day, ribavirin 7 or 21 mg/kg/day, monotherapy
# [10] = drug alone at high dose (amantadine 1.0 μg/mL; ribavirin 5 μg/mL), 48 hours
# [11] = treatment initiated 48 hours after infection
Structure (SMILES),"EC50 [1, 7] [nM]","EC50 [1, 8] [ng/mL]","EC25, Target serum C [1] [nM]","EC75, Target serum C [1] [nM]","EC25, In vitro C ([1]; monotherapy) [ng/mL]","EC75, In vitro C ([1]; monotherapy) [ng/mL]","weight loss during the infection [2, 9]","times to death ([2]; mouse, in vivo)","reduction in titer [3, 10]",effect on viral titer [3],concentrations at which the triple combination demonstrated synergism [3] [µg/mL],increase in sensitivity of the virus to the drug in triple combination compared to monotherapy [4],concentration range at which synergy was seen [4] [µg/mL],"weight loss [5, 11]",further results
NC(=O)c1ncn([C@@H]2O[C@H](CO)[C@@H](O)[C@H]2O)n1 [Ribavirin],1030,420,760,1500,310,615,more substantial,significantly increased,~3 log,negligible effect,0.5 to 5,100 fold,0.032 to 1.0,about 26%,"reduction in viral load ([4]; ribavirin monotherapy at 1 μg/ml): approximately 10%; reduction in viral load ([4]; ribavirin monotherapy at 3.2 μg/ml): ~95%; weight as percent of original weight ([5]; treatment initiated 48 hours after infection, day 13): approximately 80%"
CCOC(=O)C1=C[C@@H](OC(CC)CC)[C@H](NC(C)=O)[C@@H](N)C1 [Oseltamivir],–,–,0.080,0.240,0.025,0.075,more substantial,–,–,–,0.001 to 0.01,over 100 fold,0.001 to 0.032,~35%,"EC50 ([1]; 72 h, read-out: EC50, In vitro C): 0.05 ng/mL; EC50 ([1]; read-out: EC50, Target serum C): 0.16 nM; mice protected, UK/EU mortality criteria (death=20% weight loss) ([2]; oseltamivir 10 mg/kg/day, amantadine 3 mg/ml, ribavirin 7 mg/kg/day, as monotherapy or as triple combination at the same concentrations): 40%; survival benefit ([2]; oseltamivir monotherapy at 10 and 30 mg/kg/day oral gavage): 92-100%; reduction in titer ([3]; oseltamivir alone, both doses (1 and 10 ng/mL)): ~1 log; reduction in viral load ([4]; oseltamivir monotherapy at 0.1 μg/ml): ~50%; mortality (UK/EU mortality criteria) ([5]; treatment initiated 24 hours after infection, by day 9, amantadine 28, oseltamivir 10 mg/kg/day): 100%"
"NC12CC3CC(CC(C3)C1)C2 [Amantadine, 1-amino-adamantane]",480,91,288,815,54,153,more substantial,significantly increased,2-3 log,negligible effect,0.1 to 1,10 fold,0.1 to 1,~35%,"survival rate ([2]; amantadine 3 mg/ml by Alzet pump (4 mg/kg/day), 3 survivors out of 11): 27%; protection (survival) ([2]; amantadine 10 mg/ml by Alzet pump (13 mg/kg/day)): 92%; weight loss during the infection ([2]; amantadine 10 mg/ml monotherapy): minimal; mice protected, UK/EU mortality criteria (death=20% weight loss) ([2]; mouse, in vivo): 10%; time post infection until substantial cell death was seen [6]: 144 h; reduction in viral load ([4]; amantadine monotherapy at 1 μg/ml): ~60%; mortality (UK/EU mortality criteria) ([5]; mouse, in vivo): 100%"
